Structures can show the parent of a compound that is named as a salt.
Columns and labels:
[1] = biological target: ATM (Homo sapiens (Human), UniProt Q13315); assay: ATM in Cell Western Assay (pKAP1 in etoposide-treated MCF-7 cells); assay type: cell-based
In short: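 Cells received compounds in a 10-dose, 3-fold series from a 1 μM final top concentration, then 100 μM etoposide, for 1 hr at 37° C. They were then fixed with paraformaldehyde and permeabilized with 0.1% Triton X-100. After immunostaining, plates were scanned on an infrared imager.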

[2] = biological target: DNA-PK (Homo sapiens (Human), UniProt P78527); assay: DNA-PK Enzyme-Linked Immunosorbent Assay (phosphorylation of GST-p53 (1-101) peptide); assay type: biochemical; conditions: ELISA
In short: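 ELISA with plate-bound GST-p53 (1-101) phosphorylated by DNA-PK (0.1 μg/mL final) with 20 μM ATP for 1 h at 25 °C. Compounds tested over 10 3-fold doses from 100 nM top final. Phospho-p53 Ser15 detected by antibody, HRP and TMB, absorbance at 450 nm.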

[3] = MCF-7 cells, etoposide 100 μM, 1 hr, pKAP1 readout
[4] = pKAP1 in etoposide-treated MCF-7 cells

ATM, sequence (Q13315 whole entry): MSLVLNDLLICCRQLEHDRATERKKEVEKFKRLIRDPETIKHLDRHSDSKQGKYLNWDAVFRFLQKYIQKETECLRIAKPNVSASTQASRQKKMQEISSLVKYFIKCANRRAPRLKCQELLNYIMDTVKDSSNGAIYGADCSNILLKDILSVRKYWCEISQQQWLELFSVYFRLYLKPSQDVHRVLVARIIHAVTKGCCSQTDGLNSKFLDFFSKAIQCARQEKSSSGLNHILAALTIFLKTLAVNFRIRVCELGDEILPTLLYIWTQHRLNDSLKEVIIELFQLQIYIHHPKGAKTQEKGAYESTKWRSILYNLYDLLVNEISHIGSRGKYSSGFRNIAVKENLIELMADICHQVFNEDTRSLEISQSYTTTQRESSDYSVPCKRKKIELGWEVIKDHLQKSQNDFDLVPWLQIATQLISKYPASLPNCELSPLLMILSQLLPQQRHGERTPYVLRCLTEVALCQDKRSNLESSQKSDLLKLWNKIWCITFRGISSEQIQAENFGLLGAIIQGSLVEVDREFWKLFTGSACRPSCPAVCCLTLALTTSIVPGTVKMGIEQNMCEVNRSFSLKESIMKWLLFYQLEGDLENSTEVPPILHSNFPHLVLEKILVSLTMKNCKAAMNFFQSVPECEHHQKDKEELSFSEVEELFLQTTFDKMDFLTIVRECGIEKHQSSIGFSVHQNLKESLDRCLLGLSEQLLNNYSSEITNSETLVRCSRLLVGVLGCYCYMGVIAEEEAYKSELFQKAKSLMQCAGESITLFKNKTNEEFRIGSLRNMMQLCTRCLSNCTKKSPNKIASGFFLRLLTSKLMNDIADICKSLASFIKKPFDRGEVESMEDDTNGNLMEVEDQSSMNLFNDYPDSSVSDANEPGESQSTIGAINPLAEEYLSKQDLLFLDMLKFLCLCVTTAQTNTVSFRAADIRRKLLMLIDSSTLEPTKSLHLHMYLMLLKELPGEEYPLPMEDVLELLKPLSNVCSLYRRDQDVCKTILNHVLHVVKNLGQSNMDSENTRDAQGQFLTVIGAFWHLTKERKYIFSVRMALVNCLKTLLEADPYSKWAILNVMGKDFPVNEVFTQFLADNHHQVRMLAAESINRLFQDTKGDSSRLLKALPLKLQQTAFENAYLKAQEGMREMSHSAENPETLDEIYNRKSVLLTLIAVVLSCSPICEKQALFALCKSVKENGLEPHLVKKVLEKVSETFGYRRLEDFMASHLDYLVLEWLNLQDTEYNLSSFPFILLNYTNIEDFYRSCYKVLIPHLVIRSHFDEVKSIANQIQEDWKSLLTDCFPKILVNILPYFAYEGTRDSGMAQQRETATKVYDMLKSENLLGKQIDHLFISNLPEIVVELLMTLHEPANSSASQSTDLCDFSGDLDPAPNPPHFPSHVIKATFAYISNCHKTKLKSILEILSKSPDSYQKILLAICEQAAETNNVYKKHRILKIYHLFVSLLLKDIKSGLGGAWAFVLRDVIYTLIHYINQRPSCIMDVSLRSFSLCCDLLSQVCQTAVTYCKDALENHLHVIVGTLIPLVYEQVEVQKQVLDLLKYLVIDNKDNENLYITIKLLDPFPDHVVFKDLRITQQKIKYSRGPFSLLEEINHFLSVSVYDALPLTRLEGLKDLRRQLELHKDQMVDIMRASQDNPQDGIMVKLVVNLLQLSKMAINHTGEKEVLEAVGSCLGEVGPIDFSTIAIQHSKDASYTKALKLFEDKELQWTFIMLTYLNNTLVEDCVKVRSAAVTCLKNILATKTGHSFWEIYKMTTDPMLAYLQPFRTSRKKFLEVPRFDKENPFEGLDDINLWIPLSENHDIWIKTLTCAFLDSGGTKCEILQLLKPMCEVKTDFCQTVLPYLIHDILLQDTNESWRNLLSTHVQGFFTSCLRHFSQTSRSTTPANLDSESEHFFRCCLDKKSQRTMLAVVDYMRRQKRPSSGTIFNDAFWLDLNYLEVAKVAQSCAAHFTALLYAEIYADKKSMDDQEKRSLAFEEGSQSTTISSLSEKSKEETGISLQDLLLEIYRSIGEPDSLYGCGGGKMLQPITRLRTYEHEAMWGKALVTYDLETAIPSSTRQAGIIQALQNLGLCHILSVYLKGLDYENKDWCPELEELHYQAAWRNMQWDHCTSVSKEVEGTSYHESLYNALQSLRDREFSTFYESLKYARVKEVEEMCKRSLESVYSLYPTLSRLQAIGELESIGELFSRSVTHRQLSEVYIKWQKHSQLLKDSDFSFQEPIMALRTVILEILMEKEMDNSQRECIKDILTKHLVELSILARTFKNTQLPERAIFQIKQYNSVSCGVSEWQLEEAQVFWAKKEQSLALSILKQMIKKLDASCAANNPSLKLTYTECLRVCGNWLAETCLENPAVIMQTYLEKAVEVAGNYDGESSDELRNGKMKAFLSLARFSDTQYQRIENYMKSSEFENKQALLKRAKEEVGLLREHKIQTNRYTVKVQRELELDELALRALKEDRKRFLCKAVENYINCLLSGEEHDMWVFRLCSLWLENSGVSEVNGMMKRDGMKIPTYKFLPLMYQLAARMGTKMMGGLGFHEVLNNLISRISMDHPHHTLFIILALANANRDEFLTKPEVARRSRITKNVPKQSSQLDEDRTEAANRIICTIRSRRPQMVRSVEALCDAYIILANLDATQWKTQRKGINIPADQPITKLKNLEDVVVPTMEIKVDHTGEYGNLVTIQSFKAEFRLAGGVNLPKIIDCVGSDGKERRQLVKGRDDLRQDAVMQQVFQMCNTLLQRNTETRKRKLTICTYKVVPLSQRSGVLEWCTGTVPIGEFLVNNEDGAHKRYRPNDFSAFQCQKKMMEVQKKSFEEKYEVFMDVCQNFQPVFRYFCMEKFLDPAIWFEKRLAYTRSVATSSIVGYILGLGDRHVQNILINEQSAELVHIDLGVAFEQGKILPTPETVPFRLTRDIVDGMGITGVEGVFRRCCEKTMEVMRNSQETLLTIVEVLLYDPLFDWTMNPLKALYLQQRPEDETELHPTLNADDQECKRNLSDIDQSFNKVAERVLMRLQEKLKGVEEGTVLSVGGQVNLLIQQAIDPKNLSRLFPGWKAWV

SMILES	IC50 [1, 3] [nM]	IC50 ([2]; ATP 20 μM) [nM]	IC50 [1, 4] [nM]	IC50 ([2]; 20 μM ATP) [nM]
CN1C(=O)C2(CCC2)c2c1cnc1ccc(-c3cnc(N4CCC(N5CCCCC5)CC4)c(NS(=O)(=O)c4ccc(F)cc4F)c3)cc21 [Example 206, N-(2-([1,4′-Bipiperidin]-1′-yl)-5-(3′-methyl-2′-oxo-2′,3′-dihydrospiro[cyclobutane-1,1′-pyrrolo[2,3-c]quinolin]-8′-yl)pyridin-3-yl)-2,4-difluorobenzenesulfonamide hydrochloride]	1 to 100	< 0.5		
CC(C)NCCOc1ncc(-c2cc3c(cc2F)ncc2c3[C@]3(C[C@@H](c4cccc(Cl)c4)C3)C(=O)N2C)cc1NS(C)(=O)=O [Example 419, trans-N-(5-(3-(3-Chlorophenyl)-7′-fluoro-3′-methyl-2′-oxo-2′,3′-dihydrospiro[cyclobutane-1,1′-pyrrolo[2,3-c]quinolin]-8′-yl)-2-(2-(isopropylamino)ethoxy)pyridin-3-yl)methanesulfonamide]			> 100	1 to 100
CN1C(=O)C2(CC2)c2c1cnc1ccc(-c3cnc(OC4CC(N(C)C)C4)c(NS(=O)(=O)c4ccccc4)c3)cc21 (stereo not shown) [Example 102, N-(2-(3-(Dimethylamino)cyclobutoxy)-5-(3′-methyl-2′-oxo-2′,3′-dihydrospiro[cyclopropane-1,1′-pyrrolo[2,3-c]quinolin]-8′-yl)pyridin-3-yl)benzenesulfonamide]	1 to 100	1 to 100		
CCO[C@H]1C[C@]2(C1)C(=O)N(C)c1cnc3cc(F)c(-c4cnc(OCCNC(C)C)c(NS(C)(=O)=O)c4)cc3c12 [Example 393, cis-N-(5-(3-Ethoxy-7′-fluoro-3′-methyl-2′-oxo-2′,3′-dihydrospiro[cyclobutane-1,1′-pyrrolo[2,3-c]quinolin]-8′-yl)-2-(2-(isopropylamino)ethoxy)pyridin-3-yl) methanesulfonamide]			1 to 100	1 to 100
CO[C@H]1C[C@@]2(C1)C(=O)N(C)c1cnc3cc(F)c(-c4cnc(N5CCC(N6CCCCC6)CC5)c(NS(C)(=O)=O)c4)cc3c12 [Example 392]			1 to 100	1 to 100
COc1ncc(-c2ccc3ncc4c(c3c2)C2(CC2)C(=O)N4C)cc1NS(=O)(=O)c1cccc(C(C)=O)c1 [Example 13, 3-Acetyl-N-(2-methoxy-5-(3′-methyl-2′-oxo-2′,3′-dihydrospiro [cyclopropane-1,1′-pyrrolo[2,3-c]quinolin]-8′-yl)pyridin-3-yl)benzenesulfonamide]	1 to 100	< 0.5		
COc1ccc([C@H]2C[C@@]3(C2)C(=O)N(C)c2cnc4cc(F)c(-c5cnc(OCCNC(C)C)c(NS(C)(=O)=O)c5)cc4c23)cn1 [Example 431, trans-N-(5-(7′-Fluoro-3-(6-methoxypyridin-3-yl)-3′-methyl-2′-oxo-2′,3′-dihydrospiro[cyclobutane-1,1′-pyrrolo[2,3-c]quinolin]-8′-yl)-2-(2-(isopropylamino)ethoxy)pyridin-3-yl)methanesulfonamide]			> 100	> 100

Results, then the compound that gave them:

IC50 [1, 3] [nM]	IC50 ([2]; ATP 20 μM) [nM]	IC50 [1, 4] [nM]	IC50 ([2]; 20 μM ATP) [nM]	SMILES
< 0.5	< 0.5			CN(C)CCCOc1ncc(-c2ccc3ncc4c(c3c2)C2(CC2)C(=O)N4C)cc1NS(=O)(=O)c1ccccc1 [Example 4, N-(2-(3-(Dimethylamino)propoxy)-5-(3′-methyl-2′-oxo-2′,3′-dihydrospiro[cyclopropane-1,1′-pyrrolo[2,3-c]quinolin]-8′-yl)pyridin-3-yl)benzenesulfonamide]
1 to 100	< 0.5			CN(C)CCCOc1ncc(-c2ccc3ncc4c(c3c2)C2(CCC2)C(=O)N4C)cc1NS(C)(=O)=O [Example 189, N-(2-(3-(Dimethylamino)propoxy)-5-(3′-methyl-2′-oxo-2′,3′-dihydrospiro [cyclobulane-1,1′-pyrrolo[2,3-c]quinolin]-8′-yl)pyridin-3-yl) methanesulfonamide]
1 to 100	1 to 100			CCN(C)S(=O)(=O)Nc1cc(-c2ccc3ncc4c(c3c2)C2(CCC2)C(=O)N4C)cnc1OCCCN1CCCCC1 [Example 222, 8′-(5-{[Ethyl(methyl)sulfamoyl]amino}-6-[3-(piperidin-1-yl)propoxy]pyridin-3-yl)-3′-methyl-2′,3′-dihydrospiro [cyclobutane-1,1′-pyrrolo[2,3-c]quinoline]-2′-one]
0.5 to 1	< 0.5			CN(C)CCCOc1ncc(-c2ccc3ncc4c(c3c2)C2(CC2)C(=O)N4C)cc1NS(=O)(=O)N1CCCC1 [Example 89, N-(2-(3-(Dimethylamino)propoxy)-5-(3′-methyl-2′-oxo-2′,3′-dihydrospiro [cyclopropane-1,1′-pyrrolo[2,3-c]quinolin]-8′-yl)pyridin-3-yl)pyrrolidine-1-sulfonamide hydrochloride]
		1 to 100	1 to 100	CN(C)CCCOc1ncc(-c2ccc3ncc4c(c3c2)C2(CN(C)C2)C(=O)N4C)cc1NS(C)(=O)=O [Example 478, N-(5-(1,3′-Dimethyl-2′-oxo-2′,3′-dihydrospiro[azetidine-3,1′-pyrrolo[2,3-c]quinolin]-8′-yl)-2-(3-(dimethylamino)propoxy)pyridin-3-yl)methanesulfonamide]
0.5 to 1	< 0.5			CN1C(=O)C2(CCC2)c2c1cnc1ccc(-c3cnc(N4CCC(N(C)C)CC4)c(NS(=O)(=O)N(C)C)c3)cc21 [Example 226, 8′-{6-[4-(Dimethylamino)piperidin-1-yl]-5-[(dimethylsulfamoyl)amino]pyridin-3-yl}-3′-methyl-2′,3′-dihydrospiro[cyclobutane-1,1′-pyrrolo[2,3-c]quinoline]-2′-one]
1 to 100	< 0.5			CN1C(=O)C2(CCC2)c2c1cnc1ccc(-c3cnc(OCC(O)CN4CCCCC4)c(NS(C)(=O)=O)c3)cc21 (stereo not shown) [Example 287, N-(2-(2-Hydroxy-3-(piperidin-1-yl)propoxy)-5-(3′-methyl-2′-oxo-2′,3′-dihydrospiro[cyclobutane-1,1′-pyrrolo[2,3-c]quinolin]-8′-yl)pyridin-3-yl)methanesulfonamide]
1 to 100	1 to 100			CNC1CN(c2ncc(-c3cc4c5c(cnc4cc3F)N(C)C(=O)C53CCC3)cc2NS(=O)(=O)N(C)C)C1 [Example 332, 8′-{5-[(Dimethylsulfamoyl)amino]-6-[3-(methylamino)azetidin-1-yl]pyridin-3-yl}-7′-fluoro-3′-methyl-2′,3′-dihydrospiro[cyclobutane-1,1′-pyrrolo[2,3-c]quinoline]-2′-one]
1 to 100	1 to 100			Cc1ccc(S(=O)(=O)Nc2cc(-c3ccc4ncc5c(c4c3)C3(CCC3)C(=O)N5C)cnc2OCCCN(C)C)cn1 [Example 137, N-(2-(3-(Dimethylamino)propoxy)-5-(3′-methyl-2′-oxo-2′,3′-dihydrospiro[cyclobutane-1,1′-pyrrolo[2,3-c]quinolin]-8′-yl)pyridin-3-yl)-6-methylpyridine-3-sulfonamide hydrochloride]
1 to 100	0.5 to 1			CCS(=O)(=O)Nc1cc(-c2ccc3ncc4c(c3c2)C2(CCC2)C(=O)N4C)cnc1N1CC(N(C)C)C1 [Example 318, N-(2-(3-(Dimethylamino)azetidin-1-yl)-5-(3′-methyl-2′-oxo-2′,3′-dihydrospiro [cyclobulane-1,1′-pyrrolo[2,3-c]quinolin]-8′-yl)pyridin-3-yl)etlianesulfonamide]

Source: patent US12187742B2 (XRAD Therapeutics, Inc., priority 2018, dated 2025)
